The values below come from patent publication US20190282701A1, “CONJUGATES OF HYALURONIC ACID AND ANTICANCER COMPOUNDS” (THE UNIVERSITY OF MANCHESTER, priority 2016, published 2019).

A value given as a limit tells only on which side of the number the result lay.

One data set deals with SKBr3. Description: hypoxic/normoxic cytotoxicity, SKBr3. It is filed as cell-based. The following applies: Homo sapiens, survival at 72 h, n=3, conjugate as TPZ groups.
For a further data set, the system named is MIA PACA-2. Description: hypoxic/normoxic cytotoxicity, MIA PACA-2. It is filed as cell-based. The following applies: Homo sapiens, survival at 72 h, n=3, conjugate as TPZ groups.
Another data set concerns Hep3B2. Nature of the data set: hypoxic/normoxic cytotoxicity, Hep3B2. It is filed as cell-based. As to conditions: Homo sapiens, Hep3B, survival at 72 h, n=3, conjugate as TPZ groups.
Data set [1] deals with human tumoral cell lines.
A further data set has as its system A549. Nature of the data set: hypoxic/normoxic cytotoxicity, A549. The data set is classed as cell-based. As to conditions: Homo sapiens, survival at 72 h, n=3, conjugate as TPZ groups.
A further data set concerns FaDu. Description: hypoxic/normoxic cytotoxicity, FaDu. It is filed as cell-based. As to conditions: Homo sapiens, survival at 72 h, n=3, conjugate as TPZ groups.
The test system of another data set is T47D. Description: hypoxic/normoxic cytotoxicity, T47D. The data set is classed as cell-based. The following applies: Homo sapiens, survival at 72 h, n=3, conjugate as TPZ groups.
The subject of a further data set is MCF-7. Description: hypoxic/normoxic cytotoxicity, MCF-7. The data set is classed as cell-based. The following applies: Homo sapiens, survival at 72 h, n=3, conjugate as TPZ groups.
For the next data set, the system named is Calu-6. Description: hypoxic/normoxic cytotoxicity, Calu-6. The data set is classed as cell-based. As to conditions: Homo sapiens, survival at 72 h, n=3, conjugate as TPZ groups.
The next data set deals with CAL-27. Nature of the data set: hypoxic/normoxic cytotoxicity, CAL-27. It is filed as cell-based. The following applies: Homo sapiens, survival at 72 h, n=3, conjugate as TPZ groups.
A further data set deals with Calu-3. Nature of the data set: hypoxic/normoxic cytotoxicity, Calu-3. It is filed as cell-based. As to conditions: Homo sapiens, survival at 72 h, n=3, conjugate as TPZ groups.
In the next data set the test system is SNU-423. Nature of the data set: hypoxic/normoxic cytotoxicity, SNU-423. It is filed as cell-based. The following applies: Homo sapiens, survival at 72 h, n=3, conjugate as TPZ groups.
The test system of another data set is MDA-MB-468. Nature of the data set: hypoxic/normoxic cytotoxicity, MDA-MB-468. It is filed as cell-based. The following applies: Homo sapiens, survival at 72 h, n=3, conjugate as TPZ groups.
A further data set deals with MDA-MB-231. Nature of the data set: hypoxic/normoxic cytotoxicity, MDA-MB-231. The data set is classed as cell-based. As to conditions: Homo sapiens, survival at 72 h, n=3, conjugate as TPZ groups.
The next data set deals with HepG2. Nature of the data set: hypoxic/normoxic cytotoxicity, HepG2. The data set is classed as cell-based. As to conditions: Homo sapiens, survival at 72 h, n=3, conjugate as TPZ groups.
Data set [2] concerns human tumoral cell lines. Description: tumour cell viability assays on a panel of human cancer cell lines (overall statements, FIG. 8-10). As to conditions: eight cancer cell lines, 3 h exposure, FIG. 9 and 10.
For data set [3], the system named is MDA-MB-231 breast cancer cells. Nature of the data set: MTT toxicity of curcumin and curcumin-HAB conjugate. It is filed as cell-based. As for the experimental part: MDA-MB-231 breast cancer cells were cultured in RPMI-1640 (Gibco) containing 10% FBS, 1% Pen-Strep, L-Glutamine 2 mM (medium) at 37° C. in a humidified 5% CO2 atmosphere. To determine the toxicity of curcumin and a curcumin-HAB conjugate, cells were seeded in 96-well plates at a density of 1,000 cells per well in medium and left to attach for 24 hours. Medium was then removed and replaced with medium containing various concentrations of curcumin or the curcumin-HA conjugate. […] After this time, drug containing medium was removed, replaced with fresh medium and cells incubated for a further 96 hours. […] Briefly, 50 μl of MTT solution (0.5 mg/ml in cell culture medium) was added to each well. After incubation for a further 4 h at 37° C. the medium was removed from each well and replaced with 200 μl of DMSO to dissolve the formazan crystals. The Absorbance in each well was then read at a wavelength of 450 nm using a Tecan Infinite M200 plate-reader using I-control software. The relative cell viability (%) was calculated by the formula [A]test/[A]control×100, where “[A]test” is the absorbance of the test sample, and “[A]control” is the absorbance of the control cells incubated solely with culture medium.

The conditions of data set [4]: literature; cited from earlier work.
The test system of another data set is MCF7 breast cancer cells. The following applies: 72 h; cited from earlier work.
The test system of data set [5] is HK1 squamous nasopharynx carcinoma cells. As to conditions: 72 h; cited from earlier work.
Data set [6] relates to NCI-H209 lung cancer cells. The following applies: 24 h; cited from earlier work.
In data set [7] the test system is C66-1 squamous nasopharynx carcinoma cells. The following applies: 72 h; cited from earlier work.
In the next data set the test system is 16-F10 melanoma cells. As to conditions: 72 h; cited from earlier work.
The test system of another data set is LNCaP tumor. Nature of the data set: tumor growth in LNCaP tumor-bearing athymic nude mice. It is filed as in vivo. The following applies: i.v. every 3 day, 21 days. How it is done: Tumor-bearing mice were prepared by injecting a suspension of LNCaP cells 1×10^6 in saline physiological solution (100 μL) into the subcutaneous dorsa of athymic nude mice (seven weeks old, 20-25 g). After fourteen days of appropriate tumor growth, LNCaP bearing mice were divided into eight groups (n=10 for each group). Treatment was initiated when the tumor volume reached 90 mm^3. The mice were then i.v. injected with 200 μL of the following solutions: […] DMSO to obtain doses of 3, 6, 25 mg/Kg, HAB to obtain a dose of 50 mg/Kg, and DMSO 11% wt. in PBS. Intravenous injections, administered in tail vein, were performed every 3 day for a total period of 21 days of treatment and then sacrificed according to ethical laws in force, following a literature method^1. The tumor size was determined by caliper measurement of the largest and perpendicular diameters during the time of treatment. Tumor volumes were calculated according to the formula: V=a×b^2×0.52, where a is the largest superficial diameter and b is the smallest superficial diameter, according to a literature procedure^17.

Setting [8] is: SK-BR-3, SKBr3, 0.1% O2, 3 h exposure.
Where [9] appears, read: SK-BR-3, SKBr3, Air, 3 h exposure.
Where [10] appears, read: MIA PaCa-2, MIA PACA-2, 0.1% O2, 3 h exposure.
Where [11] appears, read: MIA PaCa-2, MIA PACA-2, Air, 3 h exposure.
Where [12] appears, read: A549, A549, 0.1% O2, 3 h exposure.
[13] abbreviates: MCF7, MCF-7, 0.1% O2, 3 h exposure.
Where [14] appears, read: Calu-6, Calu-6, 0.1% O2, 3 h exposure.
[15] abbreviates: Calu-6, Calu-6, Air, 3 h exposure.
Setting [16] is: CAL-27, CAL-27, 0.1% O2, 3 h exposure.
Setting [17] is: CAL-27, CAL-27, Air, 3 h exposure.
Where [18] appears, read: Calu-3, Calu-3, 0.1% O2, 3 h exposure.
[19] abbreviates: Calu-3, Calu-3, Air, 3 h exposure.
Setting [20] is: SNU-423, SNU-423, 0.1% O2, 3 h exposure.
[21] abbreviates: SNU-423, SNU-423, Air, 3 h exposure.
[22] abbreviates: MDA-MB-468, MDA-MB-468, 0.1% O2, 3 h exposure.
The mark [23] stands for this setting: MDA-MB-468, MDA-MB-468, Air, 3 h exposure.
Setting [24] is: MDA-MB-231, MDA-MB-231, 0.1% O2, 3 h exposure.
The mark [25] stands for this setting: MDA-MB-231, MDA-MB-231, Air, 3 h exposure.
Where [26] appears, read: HepG2, HepG2, 0.1% O2, 3 h exposure.
Where [27] appears, read: HepG2, HepG2, Air, 3 h exposure.

As to `Nc1n[n+]([O-])c2ccccc2[n+]1[O-]` [TPZ, tirapazamine], the IC50 in the data set with SKBr3 (setting [8]) is 6.3 ± 1.3 µM; in the data set with SKBr3 (setting [9]), 218 ± 3.5 µM; in the data set with MIA PACA-2 (setting [10]), 15.3 ± 2.5 µM; in the data set with MIA PACA-2 (setting [11]), 270 ± 10 µM; with Hep3B2 (Hep3B2, 0.1% O2, 3 h exposure), 31.2 ± 2.3 µM; in the data set with Hep3B2 (Hep3B2, Air, 3 h exposure) it was > 500 µM. Moreover, the IC50 came out at 81.3 ± 7.2 µM in the data set on A549 (setting [12]); 585 ± 26.3 µM in the data set on A549 (A549, A549, Air, 3 h exposure); 23.3 ± 5.4 µM in the data set with FaDu (0.1% O2, 3 h exposure); 383 ± 104 µM with FaDu (Air, 3 h exposure); 17.1 ± 1 µM in the data set with T47D (0.1% O2, 3 h exposure); 271 ± 36.4 µM in the data set with T47D (Air, 3 h exposure). Also, the IC50 worked out at 20 ± 2 µM with MCF-7 (setting [13]); 310 ± 18.3 µM in the data set on MCF-7 (MCF7, MCF-7, Air, 3 h exposure); 75 ± 8.6 µM with Calu-6 (setting [14]); 340 ± 11.5 µM in the data set on Calu-6 (setting [15]); 10 ± 2 µM in the data set on CAL-27 (setting [16]); 318 ± 50.2 µM in the data set on CAL-27 (setting [17]). The half-maximal inhibitory concentration (IC50) in the data set on Calu-3 (setting [18]) is 71.7 ± 4.4 µM; with Calu-3 (setting [19]) it was 242 ± 6 µM; in the data set on SNU-423 (setting [20]) it was 40 ± 5.8 µM; in the data set with SNU-423 (setting [21]), > 500 µM; in the data set on MDA-MB-468 (setting [22]), 7.5 ± 4.1 µM; with MDA-MB-468 (setting [23]), 232 ± 35 µM. Also, the IC50 stood at 30 ± 5 µM in the data set with MDA-MB-231 (setting [24]), 341 ± 37.5 µM with MDA-MB-231 (setting [25]), 13 ± 4.7 µM in the data set with HepG2 (setting [26]) and 228 ± 40.1 µM in the data set with HepG2 (setting [27]). Also, the “difference between hypoxic and normoxic cytotoxicity” value with human tumoral cell lines [1] was “larger difference between hypoxic and normoxic cytotoxicity”.
On to `O=C(NCCc1ccc(O)c(O)c1)Nc1n[n+]([O-])c2ccccc2[n+]1[O-]` [TPZ-DOPA], for which the IC50 is 13 ± 1.3 µM in the data set on SKBr3 (setting [8]); 17.7 ± 1.5 µM in the data set with SKBr3 (setting [9]); 9.6 ± 3.4 µM in the data set with MIA PACA-2 (setting [10]); 28 ± 3.7 µM with MIA PACA-2 (setting [11]); 4.8 ± 0.8 µM in the data set with Hep3B2 (Hep3B2, 0.1% O2, 3 h exposure); 21.8 ± 2.7 µM with Hep3B2 (Hep3B2, Air, 3 h exposure). Further, the 50% inhibitory concentration (IC50) worked out at 42.3 ± 1.2 µM in the data set on A549 (setting [12]); 83.6 ± 3.7 µM in the data set with A549 (A549, A549, Air, 3 h exposure); 6.5 ± 0.9 µM with FaDu (0.1% O2, 3 h exposure); 18 ± 2 µM with FaDu (Air, 3 h exposure); 18 ± 3.7 µM with T47D (0.1% O2, 3 h exposure); 35.5 ± 6.4 µM in the data set with T47D (Air, 3 h exposure). Also, the IC50 with MCF-7 (setting [13]) was 15.4 ± 7.09 µM; in the data set with MCF-7 (MCF7, MCF-7, Air, 3 h exposure), 23.1 ± 5.5 µM; in the data set with Calu-6 (setting [14]) it was 8.3 ± 0.9 µM; in the data set on Calu-6 (setting [15]), 26.7 ± 4.8 µM; in the data set with CAL-27 (setting [16]), 7.5 ± 4.4 µM; with CAL-27 (setting [17]), 18.7 ± 3.1 µM. Besides, the IC50 with Calu-3 (setting [18]) came to 16.7 ± 0.9 µM; in the data set on Calu-3 (setting [19]), 20.6 ± 1.1 µM; with SNU-423 (setting [20]), 6 ± 1 µM; in the data set with SNU-423 (setting [21]), 22.5 ± 6.4 µM; in the data set with MDA-MB-468 (setting [22]), 8.2 ± 2.6 µM; in the data set on MDA-MB-468 (setting [23]), 17.5 ± 5 µM. For the same compound, the IC50 in the data set on MDA-MB-231 (setting [24]) was determined as 9 ± 1.4 µM; in the data set with MDA-MB-231 (setting [25]) it was 23.1 ± 5.3 µM; with HepG2 (setting [26]), 3.7 ± 0.7 µM; with HepG2 (setting [27]), 13.8 ± 2.8 µM. The “72 h viability under hypoxia (0.1% oxygen) vs normoxia (air)” value in the data set on human tumoral cell lines [2] is given as “viability is lower under hypoxia than that under normoxia”.
On to `COc1cc(/C=C/C(=O)CC(=O)/C=C/c2ccc(O)c(OC)c2)ccc1O` [curcumin], for which, in data set [3] (MDA-MB-231, 40 μM curcumin, 3 h exposure then 96 h), the “maximum cell kill that could be achieved” value is listed as 40%. In addition, the “concentration of curcumin needed for 40% cell kill” value in data set [3] (MDA-MB-231, 3 h exposure then 96 h, conjugate as curcumin contained) was found to be 40 µM.
Regarding `Oc1cc(O)cc(/C=C/c2ccc(O)c(O)c2)c1` [piceatannol], the “tissue accumulation of free drug” value in [4] was “strong renal and pulmonary accumulation”.
Consider `O=c1c(O)c(-c2ccc(O)c(O)c2)oc2cc(O)cc(O)c12` [quercetin], for which the IC50 was 10 µM in the data set with MCF7 breast cancer cells; 150 to 200 µM in data set [5]; 5 µM in data set [6]; 150 to 200 µM in data set [7]; 20 µM with 16-F10 melanoma cells. The “tissue accumulation of free drug” value in data set [4] is “strong renal and pulmonary accumulation”. In addition, in the data set with LNCaP tumor, the “dose of free quercetin giving results comparable to HABQ” value worked out at 25 mg/kg.

As usually defined, the IC50 is the midpoint of a concentration-inhibition curve.
